Measurements from patent US8889671B2, “Compounds and methods for treating bacterial infections” (AstraZeneca AB, priority 2013, dated 2014).
pIC50: −log10 of the molar value. Converted amounts (≈) assume the structure as drawn. Read-outs that look alike come from different tables or passages of the source.

Experiments:
Staphylococcus aureus = experiment: Susceptibility testing (MIC) Assay 1, broth microdilution; type: cell-based; settings: Staphylococcus aureus
Procedure: (§1) Minimum Inhibitory Concentrations (MICs) were determined by the broth microdilution method in accordance with the Clinical and Laboratory Standards Institute (CLSI) guidelines. In brief, organism suspensions were adjusted to a 0.5 McFarland standard to yield a final inoculum between 3×10^5 and 7×10^5 colony-forming units (CFU)/mL. Bacterial inocula were prepared for most organisms in sterile, cation adjusted Mueller-Hinton Broth (Beckton Dickinson). The streptococci were prepared as above in cation adjusted Mueller-Hinton Broth to which 2.5% lysed horse blood (Hema Resource & Supply Inc.) was added. An inoculum volume of 100 μL was added to wells (using a Tecan EVO robot) containing 2 μL of DMSO containing 2-fold serial dilutions of drug. All inoculated microdilution trays were incubated in ambient air at 35° C. for 18-24 hours. Following incubation, the lowest concentration of the drug that prevented visible growth as read at OD600 nm and confirmed by a visual read using a test reading mirror was recorded as the MIC. Performance of the assay was monitored by the use of laboratory quality-control strains and commercially available control compounds with defined MIC spectrums, in accordance with CLSI guidelines. Table 1 provides the MIC results (μM) of Examples 1-77 tested in Assay 1. Table 2 provides the MIC (μg/mL) results of Examples 78-80 tested in Assay 1.

Streptococcus pneumoniae = experiment: as above; type: cell-based
Procedure: as §1

Streptococcus pyogenes = experiment: as above; type: cell-based; settings: Streptococcus pyogenes, Streptococcus pyrgenes, in vivo strain; read-out: Spy MIC
Procedure: as §1

Escherichia coli = experiment: Susceptibility testing (MIC) Assay 2, broth microdilution; type: cell-based; settings: K12, read-out: Eco MIC
Procedure: (§2) Minimum Inhibitory Concentrations (MICs) were determined by the broth microdilution method in accordance with the Clinical and Laboratory Standards Institute (CLSI) guidelines. In brief, organism suspensions were adjusted to a 0.5 McFarland standard to yield a final inoculum between 3×10^5 and 7×10^5 colony-forming units (CFU)/mL. Bacterial inocula were generally prepared in sterile, cation adjusted Mueller-Hinton Broth (Becton Dickinson) which included Escherichia coli, Klebsiella pneumoniae, and Pseudomonas aeruginosa. Haemophilus influenzae bacterial inocula were prepared in sterile, cation adjusted Mueller-Hinton Broth (Becton Dickinson) containing 0.5% yeast extract (Becton Dickinson) plus 30 mL of 15 μg/mL Bovine Hematin stock (Sigma), and 3 mL of 15 μg/mL β-nicotinamide adenine dinucleotide (Sigma). Strains of Neisseria were tested for MICs using agar dilution methodology in accordance with CLSI guidelines. For broth microdilution testing, an inoculum volume of 100 μL was added to wells (using a Tecan EVO robot) containing 2 μL of DMSO containing 2-fold serial dilutions of drug. All inoculated microdilution panels were incubated in ambient air at 35° C. for 18-24 hours. Following incubation, the lowest concentration of the drug that prevented visible growth as read at OD600 nm and confirmed by a visual read using a test reading mirror was recorded as the MIC. Performance of the assay was monitored by the use of laboratory quality-control strains and commercially available control compounds with defined MIC spectrums, in accordance with CLSI guidelines. Table 3 provides the MIC results (μM) of Examples 1-77 tested in Assay 2. Table 4 provides the MIC (μg/mL) results of Examples 78-80 tested in Assay 2.

Haemophilus influenzae = experiment: as above; type: cell-based; settings: ATCC51907, Haemophilus influenzae, ATCC 51907, in vivo strain, read-out: Hin MIC
Procedure: as §2

Klebsiella pneumoniae = experiment: as above; type: cell-based; settings: clinical isolate, mucoid, read-out: Kpn MIC
Procedure: as §2

Pseudomonas aeruginosa = experiment: as above; type: cell-based; settings: PAO1, read-out: Pae MIC
Procedure: as §2

[1] = biological target: Escherichia coli DNA gyrase A/B tetramer (Escherichia coli (strain K12), UniProt P0AES4+P0AES6); experiment: DNA gyrase supercoiling activity fluorescence polarisation assay; type: biochemical; settings: Eco Gyr FP Mean IC50, E. coli DNA gyrase supercoiling, 0.3 mM ATP
Procedure: In a black, 384-well polystyrene assay plate, 30 microliters/well of 5 nM Escherichia coli DNA gyrase A/B tetramer and 130 micrograms/mL of topologically relaxed plasmid containing the triplex-forming sequence
in an assay buffer consisting of 35 mM Tris-HCl (pH 7.5), 24 mM KCl, 4 mM MgCl2, 2 mM dithiothreitol, 1.8 mM spermidine, 5% (v/v) glycerol, 200 nM bovine serum albumin, 0.8% dimethylsulfoxide, and 0.3 mM ATP were incubated at ambient temperature for (typically 30 minutes) in the absence or presence of 5-10 different concentrations of test compound. The supercoiling reactions were quenched by the addition of 10 microliters/well of 40 nM oligodeoxynucleotide probe in 3× triplex-forming buffer consisting of 150 mM NaCl, and 150 mM sodium acetate at pH 3.5. The oligodeoxynucleotide probe was 5′-BODIPY-FL-labeled
After 60 minutes, the fluorescence anisotropy of the BODIPY-FL was measured in a Tecan Ultra plate reader, using 485 nm excitation and 535 nm emission filters equipped with polarizers. The IC50 was determined by nonlinear regression using two control reactions.

[2] = Staphylococcus aureus in vivo strain, MSQS, read-out: Sau(d) MIC
[3] = in vivo strain, MRQR, read-out: Sau(e) MIC
[4] = in vivo strain (footnote b), read-out: Spn(b) MIC
[5] = in vivo strain (footnote c), read-out: Spn(c) MIC

| Compound | MIC (Staphylococcus aureus; [2]) | MIC (Staphylococcus aureus; [3]) | MIC (Staphylococcus aureus; serum, read-out: Sau(f) MIC) | MIC (Streptococcus pneumoniae; [4]) | MIC (Streptococcus pneumoniae; [5]) | MIC (Streptococcus pyogenes) | MIC (Escherichia coli) | MIC (Haemophilus influenzae) | MIC (Klebsiella pneumoniae) | MIC (Pseudomonas aeruginosa) | pIC50 [1] |
| --- | --- | --- | --- | --- | --- | --- | --- | --- | --- | --- | --- |
| C[C@@H]1CN2c3c(cc4c(N5C(=O)OC[C@@H]5c5ccccc5)noc4c3F)CC3(C(=O)NC(=O)NC3=O)[C@H]2[C@H](C)O1 [Example 9, (2R,4S,4aS)-11-Fluoro-2,4-dimethyl-8-[(4S)-2-oxo-4-phenyl-1,3-oxazolidin-3-yl]-1,2,4,4a-tetrahydro-2′H,6H-spiro[1,4-oxazino[4,3-a][1,2]oxazolo[4,5-g]quinoline-5,5′-pyrimidine]-2′,4′,6′(1′H,3′H)-trione] | 0.78 µM (≈ 0.429 µg/mL) | 0.78 µM (≈ 0.429 µg/mL) | 12 µM (≈ 6.59 µg/mL) | 1.6 µM (≈ 0.879 µg/mL) | 1.6 µM (≈ 0.879 µg/mL) | 0.78 µM (≈ 0.429 µg/mL) | 50 µM (≈ 27.5 µg/mL) | 0.39 µM (≈ 0.214 µg/mL) | > 200 µM | > 200 µM | 6.15 |
| C[C@@H]1CN2c3c(cc4c(N5C(=O)OC[C@H]5Cc5ccccc5)noc4c3F)CC3(C(=O)NC(=O)NC3=O)[C@H]2[C@H](C)O1 [Example 10, (2R,4S,4aS)-8-[(4R)-4-Benzyl-2-oxo-1,3-oxazolidin-3-yl]-11-fluoro-2,4-dimethyl-1,2,4,4a-tetrahydro-2′H,6H-spiro[1,4-oxazino[4,3-a][1,2]oxazolo[4,5-g]quinoline-5,5′-pyrimidine]-2′,4′,6′(1′H,3′H)-trione] | 6.2 µM (≈ 3.49 µg/mL) | 12 µM (≈ 6.76 µg/mL) | 200 µM (≈ 113 µg/mL) | 50 µM (≈ 28.2 µg/mL) | 50 µM (≈ 28.2 µg/mL) | 25 µM (≈ 14.1 µg/mL) | > 200 µM | 25 µM (≈ 14.1 µg/mL) | > 200 µM | > 200 µM | 5.17 |
| C[C@@H]1CN2c3c(cc4c(N5C(=O)OC[C@@H]5Cc5ccccc5)noc4c3F)CC3(C(=O)NC(=O)NC3=O)[C@H]2[C@H](C)O1 [Example 11, (2R,4S,4aS)-8-[(4S)-4-Benzyl-2-oxo-1,3-oxazolidin-3-yl]-11-fluoro-2,4-dimethyl-1,2,4,4a-tetrahydro-2′H,6H-spiro[1,4-oxazino[4,3-a][1,2]oxazolo[4,5-g]quinoline-5,5′-pyrimidine]-2′,4′,6′(1′H,3′H)-trione] | 1.6 µM (≈ 0.902 µg/mL) | 1.6 µM (≈ 0.902 µg/mL) | 25 µM (≈ 14.1 µg/mL) | 3.1 µM (≈ 1.75 µg/mL) | 3.1 µM (≈ 1.75 µg/mL) | 3.1 µM (≈ 1.75 µg/mL) | 50 µM (≈ 28.2 µg/mL) | 3.1 µM (≈ 1.75 µg/mL) | > 200 µM | > 200 µM | 5.92 |
| CC[C@H]1CN(c2noc3c(F)c4c(cc23)CC2(C(=O)NC(=O)NC2=O)[C@H]2[C@H](C)O[C@H](C)CN42)C(=O)O1 [Example 13, (2R,4S,4aS)-8-[(5S)-5-Ethyl-2-oxo-1,3-oxazolidin-3-yl]-11-fluoro-2,4-dimethyl-1,2,4,4a-tetrahydro-2′H,6H-spiro[1,4-oxazino[4,3-a][1,2]oxazolo[4,5-g]quinoline-5,5′-pyrimidine]-2′,4′,6′(1′H,3′H)-trione] | 0.39 µM (≈ 0.196 µg/mL) | 0.78 µM (≈ 0.391 µg/mL) | 0.78 µM (≈ 0.391 µg/mL) | 0.78 µM (≈ 0.391 µg/mL) | 0.78 µM (≈ 0.391 µg/mL) | 0.39 µM (≈ 0.196 µg/mL) | 12 µM (≈ 6.02 µg/mL) | 0.78 µM (≈ 0.391 µg/mL) | 200 µM (≈ 100 µg/mL) | > 200 µM | 6.29 |
| CC[C@@H]1CN(c2noc3c(F)c4c(cc23)CC2(C(=O)NC(=O)NC2=O)[C@H]2[C@H](C)O[C@H](C)CN42)C(=O)O1 [Example 14, (2R,4S,4aS)-8-[(5R)-5-Ethyl-2-oxo-1,3-oxazolidin-3-yl]-11-fluoro-2,4-dimethyl-1,2,4,4a-tetrahydro-2′H,6H-spiro[1,4-oxazino[4,3-a][1,2]oxazolo[4,5-g]quinoline-5,5′-pyrimidine]-2′,4′,6′(1′H,3′H)-trione] | 0.39 µM (≈ 0.196 µg/mL) | 0.78 µM (≈ 0.391 µg/mL) | 1.6 µM (≈ 0.802 µg/mL) | 0.78 µM (≈ 0.391 µg/mL) | 0.78 µM (≈ 0.391 µg/mL) | 0.78 µM (≈ 0.391 µg/mL) | 25 µM (≈ 12.5 µg/mL) | 0.78 µM (≈ 0.391 µg/mL) | 200 µM (≈ 100 µg/mL) | > 200 µM | 6.24 |
| C[C@@H]1CN2c3c(cc4c(N5C(=O)OC[C@@H]5CF)noc4c3F)CC3(C(=O)NC(=O)NC3=O)[C@H]2[C@H](C)O1 [Example 15, (2R,4S,4aS)-11-Fluoro-8-[(4R)-4-(fluoromethyl)-2-oxo-1,3-oxazolidin-3-yl]-2,4-dimethyl-1,2,4,4a-tetrahydro-2′H,6H-spiro[1,4-oxazino[4,3-a][1,2]oxazolo[4,5-g]quinoline-5,5′-pyrimidine]-2′,4′,6′(1′H,3′H)-trione] | 0.28 µM (≈ 0.142 µg/mL) | 0.78 µM (≈ 0.394 µg/mL) | 0.39 µM (≈ 0.197 µg/mL) | 0.28 µM (≈ 0.142 µg/mL) | 0.39 µM (≈ 0.197 µg/mL) | < 0.2 µM | 12 µM (≈ 6.07 µg/mL) | < 0.2 µM | > 200 µM | > 200 µM | 6.89 |
| C[C@@H]1CN2c3c(cc4c(N5C(=O)OC[C@H]5CF)noc4c3F)CC3(C(=O)NC(=O)NC3=O)[C@H]2[C@H](C)O1 [Example 16, (2R,4S,4aS)-11-Fluoro-8-[(4S)-4-(fluoromethyl)-2-oxo-1,3-oxazolidin-3-yl]-2,4-dimethyl-1,2,4,4a-tetrahydro-2′H,6H-spiro[1,4-oxazino[4,3-a][1,2]oxazolo[4,5-g]quinoline-5,5′-pyrimidine]-2′,4′,6′(1′H,3′H)-trione] | 0.39 µM (≈ 0.197 µg/mL) | 1.6 µM (≈ 0.809 µg/mL) | 1.6 µM (≈ 0.809 µg/mL) | 0.39 µM (≈ 0.197 µg/mL) | 0.39 µM (≈ 0.197 µg/mL) | 0.39 µM (≈ 0.197 µg/mL) | 25 µM (≈ 12.6 µg/mL) | 0.78 µM (≈ 0.394 µg/mL) | 200 µM (≈ 101 µg/mL) | > 200 µM | 6.72 |
| COC[C@@H]1COC(=O)N1c1noc2c(F)c3c(cc12)CC1(C(=O)NC(=O)NC1=O)[C@H]1[C@H](C)O[C@H](C)CN31 [Example 18, (2R,4S,4aS)-11-fluoro-8-[(4R)-4-(methoxymethyl)-2-oxo-1,3-oxazolidin-3-yl]-2,4-dimethyl-1,2,4,4a-tetrahydro-2′H,6H-spiro[1,4-oxazino[4,3-a][1,2]oxazolo[4,5-g]quinoline-5,5′-pyrimidine]-2′,4′,6′(1′H,3′H)-trione] | 3.1 µM (≈ 1.6 µg/mL) | 6.2 µM (≈ 3.21 µg/mL) | 12 µM (≈ 6.21 µg/mL) | 3.1 µM (≈ 1.6 µg/mL) | 6.2 µM (≈ 3.21 µg/mL) | 12 µM (≈ 6.21 µg/mL) | > 200 µM | 3.1 µM (≈ 1.6 µg/mL) | > 200 µM | > 200 µM | 6.09 |
| C[C@@H]1CN2c3c(cc4c(N5C[C@@H](CF)OC5=O)noc4c3F)CC3(C(=O)NC(=O)NC3=O)[C@H]2[C@H](C)O1 [Example 19] | 0.14 µM (≈ 0.0708 µg/mL) | 0.78 µM (≈ 0.394 µg/mL) | 0.28 µM (≈ 0.142 µg/mL) | < 0.2 µM | 0.24 µM (≈ 0.121 µg/mL) | < 0.2 µM | 8.8 µM (≈ 4.45 µg/mL) | 0.28 µM (≈ 0.142 µg/mL) | 200 µM (≈ 101 µg/mL) | > 200 µM | 6.80 |
| COC[C@@H]1CN(c2noc3c(Cl)c4c(cc23)CC2(C(=O)NC(=O)NC2=O)[C@H]2[C@H](C)O[C@H](C)CN42)C(=O)O1 [Example 20] | 0.28 µM (≈ 0.149 µg/mL) | 1.1 µM (≈ 0.587 µg/mL) | 0.39 µM (≈ 0.208 µg/mL) | 0.28 µM (≈ 0.149 µg/mL) | 0.28 µM (≈ 0.149 µg/mL) | 0.28 µM (≈ 0.149 µg/mL) | 25 µM (≈ 13.3 µg/mL) | 0.39 µM (≈ 0.208 µg/mL) | > 200 µM | > 200 µM | 6.38 |
